Reference: patent publication US20110071180A1, “SUB-TYPE SELECTIVE AMIDES OF DIAZABICYCLOALKANES” (Targacept, Inc., priority 2008, published 2011)
pKi: −log10 of the molar value. Read-outs that look alike come from different tables or passages of the source.

What was measured:
human α4β2 nAChR subtype = biological target: T1, human α4β2 nAChR subtype (Homo sapiens, UniProt P17787+P43681); experiment: Radioligand binding, [3H]nicotine, membranes from SH-EP1/human α4β2 clonal cells; conditions: [3H]nicotine 5 nM, SH-EP1/human α4β2 cell membranes
T1 construct: expressed in transfected cells; host or cells: SH-EP1 clonal cells expressing human α4β2
Protocol: Preparation of membranes from SH-EP1/human α4β2 clonal cells: Cell pellets from 40 150 mm culture dishes were pooled, and homogenized by Polytron (Kinematica GmbH, Switzerland) in 20 milliliters of ice-cold preparative buffer. The homogenate was centrifuged at 48,000 g for 20 minutes at 4° C. The resulting pellet was re-suspended in 20 mL of ice-cold preparative buffer and stored at −20° C.
(§1) On the day of the assay, the frozen membranes were thawed and spun at 48,000×g for 20 min. The supernatant was decanted and discarded. The pellet was resuspended in Dulbecco's phosphate buffered saline (PBS, Life Technologies) pH 7.4 and homogenized with the Polytron for 6 seconds. Protein concentrations were determined using a Pierce BCA Protein Assay Kit, with bovine serum albumin as the standard (Pierce Chemical Company, Rockford, Ill.).
(§2) Membrane preparations (approximately 50 μg for human and 200-300 μg protein for rat α4β2) were incubated in PBS (50 μL and 100 μL respectively) in the presence of competitor compound (0.01 nM to 100 μM) and 5 nM [^3H]nicotine for 2-3 hours on ice. Incubation was terminated by rapid filtration on a multi-manifold tissue harvester (Brandel, Gaithersburg, Md.) using GF/B filters presoaked in 0.33% polyethyleneimine (w/v) to reduce non-specific binding. Tissue was rinsed 3 times in PBS, pH 7.4. Scintillation fluid was added to filters containing the washed tissue and allowed to equilibrate. Filters were then counted to determine radioactivity bound to the membranes by liquid scintillation counting (2200CA Tri-Carb LSC, Packard Instruments, 50% efficiency or Wallac Trilux 1450 MicroBeta, 40% efficiency, Perkin Elmer).
(§3) Data were expressed as disintegrations per minute (DPMs). Within each assay, each point had 2-3 replicates. The replicates for each point were averaged and plotted against the log of the drug concentration. IC50, which is the concentration of the compound that produces 50% inhibition of binding, was determined by least squares non-linear regression. Ki values were calculated using the Cheng-Prussof equation (1973): […]

α7 nAChR subtype = biological target: T2, α7 nAChR subtype (Rattus norvegicus, UniProt Q05941); experiment: Radioligand binding, [3H]MLA, rat hippocampus membranes; conditions: for inhibition at 5 µM: read-out: α7 high through-put screening (HTS) result
T2 construct: The hippocampus was removed and placed in 10 volumes (weight:volume) of ice-cold preparative buffer; from tissue; host or cells: rat hippocampus membranes (female Sprague-Dawley)
Protocol: Rats (female, Sprague-Dawley), weighing 150-250 g, were maintained on a 12 h light/dark cycle and were allowed free access to water and food supplied by PMI Nutrition International, Inc. Animals were anesthetized with 70% CO2, then decapitated. Brains were removed and placed on an ice-cold platform. The hippocampus was removed and placed in 10 volumes (weight:volume) of ice-cold preparative buffer (137 mM NaCl, 10.7 mM KCl, 5.8 mM KH2PO4, 8 mM Na2HPO4, 20 mM HEPES (free acid), 5 mM iodoacetamide, 1.6 mM EDTA, pH 7.4); PMSF, dissolved in methanol to a final concentration of 100 μM, was added and the tissue suspension was homogenized by Polytron. The homogenate was centrifuged at 18,000×g for 20 min at 4° C. and the resulting pellet was re-suspended in 10 volumes of ice-cold water. After 60 min incubation on ice, a new pellet was collected by centrifugation at 18,000×g for 20 min at 4° C. The final pellet was re-suspended in 10 volumes of buffer and stored at −20° C. On the day of the assay, tissue was thawed, centrifuged at 18,000×g for 20 min, and then re-suspended in ice-cold PBS (Dulbecco's Phosphate Buffered Saline, 138 mM NaCl, 2.67 mM KCl, 1.47 mM KH2PO4, 8.1 mM Na2HPO4, 0.9 mM CaCl2, 0.5 mM MgCl2, Invitrogen/Gibco, pH 7.4) to a final concentration of approximately 2 mg protein/mL. Protein was determined by the method of Lowry et al., J. Biol. Chem. 193: 265 (1951), using bovine serum albumin as the standard.
The binding of [^3H]MLA was measured using a modification of the methods of Davies et al., Neuropharmacol. 38: 679 (1999). [^3H]MLA (Specific Activity=25-35 Ci/mmol) was obtained from Tocris. The binding of [^3H]MLA was determined using a 2 h incubation at 21° C. Incubations were conducted in 48-well micro-titre plates and contained about 200 μg of protein per well in a final incubation volume of 300 μL. The incubation buffer was PBS and the final concentration of [^3H]MLA was 5 nM. The binding reaction was terminated by filtration of the protein containing bound ligand onto glass fiber filters (GF/B, Brandel) using a Brandel Tissue Harvester at room temperature. Filters were soaked in de-ionized water containing 0.33% polyethyleneimine to reduce non-specific binding. Each filter was washed with PBS (3×1 mL) at room temperature. Non-specific binding was determined by inclusion of 50 μM non-radioactive MLA in selected wells.
The inhibition of [^3H]MLA binding by test compounds was determined by including seven different concentrations of the test compound in selected wells. Each concentration was replicated in triplicate. IC50 values were estimated as the concentration of compound that inhibited 50 percent of specific [^3H]MLA binding. Inhibition constants (Ki values), reported in nM, were calculated from the IC50 values using the method of Cheng et al., Biochem. Pharmacol. 22: 3099-3108 (1973).

rat α4β2 nAChR subtype = biological target: T3, rat α4β2 nAChR subtype (Rattus norvegicus, UniProt P09483+P12390); experiment: Radioligand binding, [3H]nicotine, rat cortex membranes; conditions: [3H]nicotine 5 nM
T3 construct: The cerebral cortex was removed and placed in 20 volumes (weight:volume) of ice-cold preparative buffer; from tissue; host or cells: rat cerebral cortex membranes (female Sprague-Dawley)
Protocol: Preparation of Membranes from Rat Cortex: Rats (Female, Sprague-Dawley), weighing 150-250 g, were maintained on a 12 h light/dark cycle and were allowed free access to water and food supplied by PMI Nutrition International, Inc. Animals were anesthetized with 70% CO2, and then decapitated. Brains were removed and placed on an ice-cold platform. The cerebral cortex was removed and placed in 20 volumes (weight:volume) of ice-cold preparative buffer (137 mM NaCl, 10.7 mM KCl, 5.8 mM KH2PO4, 8 mM Na2HPO4, 20 mM HEPES (free acid), 5 mM iodoacetamide, 1.6 mM EDTA, pH 7.4); PMSF, dissolved in methanol to a final concentration of 100 μM, was added and the suspension was homogenized by Polytron. The homogenate was centrifuged at 18,000×g for 20 min at 4° C. and the resulting pellet was re-suspended in 20 volumes of ice-cold water. After 60 min incubation on ice, a new pellet was collected by centrifugation at 18,000×g for 20 min at 4° C. The final pellet was re-suspended in 10 volumes of buffer and stored at −20° C.
as §1, §2, §3

[1] = [3H]MLA 5 nM, rat hippocampus membranes, read-out: α7 Ki

T1 sequence (P43681 29-627 limits assumed): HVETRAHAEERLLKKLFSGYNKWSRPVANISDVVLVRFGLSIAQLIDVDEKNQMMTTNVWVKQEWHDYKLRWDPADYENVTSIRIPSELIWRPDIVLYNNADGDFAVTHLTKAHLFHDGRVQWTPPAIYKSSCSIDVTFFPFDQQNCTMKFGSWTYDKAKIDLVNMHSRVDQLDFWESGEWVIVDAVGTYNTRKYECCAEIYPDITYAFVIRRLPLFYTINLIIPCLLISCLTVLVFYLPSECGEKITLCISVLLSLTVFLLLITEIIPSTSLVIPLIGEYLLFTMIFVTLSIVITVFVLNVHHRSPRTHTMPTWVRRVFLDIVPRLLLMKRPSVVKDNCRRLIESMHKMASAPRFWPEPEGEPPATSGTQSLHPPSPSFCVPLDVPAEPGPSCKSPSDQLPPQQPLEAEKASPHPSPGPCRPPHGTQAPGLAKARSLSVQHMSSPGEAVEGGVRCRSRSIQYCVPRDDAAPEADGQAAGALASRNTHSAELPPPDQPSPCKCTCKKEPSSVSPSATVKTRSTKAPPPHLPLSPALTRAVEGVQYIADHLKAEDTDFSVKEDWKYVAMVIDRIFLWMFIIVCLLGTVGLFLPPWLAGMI
T1 sequence (P17787 26-502): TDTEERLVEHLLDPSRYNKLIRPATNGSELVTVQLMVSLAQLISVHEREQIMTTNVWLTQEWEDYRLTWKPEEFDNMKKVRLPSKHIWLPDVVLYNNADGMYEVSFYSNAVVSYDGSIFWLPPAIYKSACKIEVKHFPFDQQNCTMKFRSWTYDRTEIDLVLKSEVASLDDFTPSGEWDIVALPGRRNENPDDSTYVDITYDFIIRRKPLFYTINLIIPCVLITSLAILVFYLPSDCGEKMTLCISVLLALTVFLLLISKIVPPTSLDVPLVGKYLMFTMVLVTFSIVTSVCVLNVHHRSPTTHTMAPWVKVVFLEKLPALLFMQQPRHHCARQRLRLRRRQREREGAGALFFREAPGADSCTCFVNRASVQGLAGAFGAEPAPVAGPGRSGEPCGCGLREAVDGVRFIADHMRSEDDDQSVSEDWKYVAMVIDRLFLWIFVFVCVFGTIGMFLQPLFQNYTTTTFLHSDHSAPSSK
T2 sequence (Q05941 23-502): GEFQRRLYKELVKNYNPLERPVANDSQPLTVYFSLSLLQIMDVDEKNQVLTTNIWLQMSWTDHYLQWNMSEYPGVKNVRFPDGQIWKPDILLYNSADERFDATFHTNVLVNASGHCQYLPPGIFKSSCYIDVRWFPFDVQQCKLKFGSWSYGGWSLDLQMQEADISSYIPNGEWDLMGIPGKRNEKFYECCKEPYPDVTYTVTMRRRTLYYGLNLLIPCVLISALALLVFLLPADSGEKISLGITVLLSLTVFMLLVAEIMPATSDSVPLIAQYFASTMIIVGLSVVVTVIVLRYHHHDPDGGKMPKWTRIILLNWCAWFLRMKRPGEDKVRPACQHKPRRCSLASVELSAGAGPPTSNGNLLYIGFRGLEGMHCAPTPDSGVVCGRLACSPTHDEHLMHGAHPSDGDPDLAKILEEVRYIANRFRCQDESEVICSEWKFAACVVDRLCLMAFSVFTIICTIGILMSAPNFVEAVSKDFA
T3 sequence (P09483 31-630): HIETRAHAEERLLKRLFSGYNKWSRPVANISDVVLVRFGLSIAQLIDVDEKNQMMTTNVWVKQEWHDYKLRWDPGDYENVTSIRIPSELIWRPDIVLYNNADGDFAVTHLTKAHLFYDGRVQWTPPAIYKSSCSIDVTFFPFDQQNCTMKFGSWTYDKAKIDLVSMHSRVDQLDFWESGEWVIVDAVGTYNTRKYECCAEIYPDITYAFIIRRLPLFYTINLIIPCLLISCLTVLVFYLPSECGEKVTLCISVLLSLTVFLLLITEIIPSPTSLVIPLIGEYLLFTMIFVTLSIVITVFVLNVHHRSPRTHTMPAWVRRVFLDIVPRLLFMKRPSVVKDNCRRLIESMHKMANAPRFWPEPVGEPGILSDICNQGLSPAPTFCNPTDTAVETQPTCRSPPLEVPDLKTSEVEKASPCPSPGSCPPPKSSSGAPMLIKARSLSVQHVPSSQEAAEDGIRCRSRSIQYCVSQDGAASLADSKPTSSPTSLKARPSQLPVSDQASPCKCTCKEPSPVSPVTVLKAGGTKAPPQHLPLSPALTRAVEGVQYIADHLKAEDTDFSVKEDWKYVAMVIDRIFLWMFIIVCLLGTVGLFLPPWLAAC
T3 sequence (P12390 25-500): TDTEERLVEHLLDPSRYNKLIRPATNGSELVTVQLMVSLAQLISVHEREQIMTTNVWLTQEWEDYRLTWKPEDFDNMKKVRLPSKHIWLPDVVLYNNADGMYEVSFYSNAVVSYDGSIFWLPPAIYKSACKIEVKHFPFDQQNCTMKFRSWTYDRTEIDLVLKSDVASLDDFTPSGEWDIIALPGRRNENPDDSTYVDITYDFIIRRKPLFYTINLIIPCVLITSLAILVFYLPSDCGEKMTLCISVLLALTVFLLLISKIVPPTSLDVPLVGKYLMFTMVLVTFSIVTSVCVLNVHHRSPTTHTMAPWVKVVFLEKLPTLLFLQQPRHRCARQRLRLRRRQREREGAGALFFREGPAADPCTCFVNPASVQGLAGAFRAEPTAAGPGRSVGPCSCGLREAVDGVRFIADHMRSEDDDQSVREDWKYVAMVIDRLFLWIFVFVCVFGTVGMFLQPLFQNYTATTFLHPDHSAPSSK

SMILES | pKi (human α4β2 nAChR subtype) | pKi (α7 nAChR subtype; [1]) | pKi (rat α4β2 nAChR subtype) | inhibition at 5 µM (α7 nAChR subtype) | pKi (α7 nAChR subtype; α7 Ki)
CC(=O)N1CC2CNCC(C2)C1 [Example 10-55] | 7.69 | 5.48 | 7.73 | – | –
O=C(C1CC1(F)F)N1CC2CNCC2C1 (stereo not drawn) [Example 10-18] | 8.68 | – | 8.21 | < 50% | –
O=C(N1CC2CNCC2C1)C1(C(F)(F)F)CC1 (stereo not drawn) [Example 10-17] | 6.52 | – | 6.38 | < 50% | –
O=C(C(F)F)N1CC2CNCC2C1 (stereo not drawn) [Example 10-9] | 7.50 | – | 8.37 | < 50% | –
CCC(=O)N1CC2CNCC(C2)C1 [Example 10-63] | 7.98 | 6.10 | 7.92 | – | –
COC1CC(C(=O)N2CC3CNCC3C2)C1 (stereo not drawn) [Example 10-53] | 6.83 | – | 7.08 | < 50% | –
CC1C(C)C1C(=O)N1CC2CNCC2C1 (stereo not drawn) [Example 10-52] | 7.91 | – | 6.88 | < 50% | –
CC1(C(=O)N2CC3CNCC(C3)C2)CC1 [Example 10-70] | 6.67 | – | 6.06 | < 50% | –
CCC(=O)N1CC2CNCC2C1 (stereo not drawn) [Example 10-14] | 8.07 | – | 7.77 | < 50% | –
CC(C)(C)C(=O)N1CC2CNCC(C2)C1 [Example 10-57] | 6.90 | – | 6.95 | < 50% | –
CC1(C)CC1C(=O)N1CC2CNCC(C2)C1 (stereo not drawn) [Example 10-69] | 9.00 | 6.42 | 8.82 | – | –
O=C([C@@H]1CC2C=CC1C2)N1CC2CNCC(C2)C1 (stereo partly drawn) [Example 10-95] | 8.66 | – | 8.31 | < 50% | –
O=C(CCF)N1CC2CNCC(C2)C1 [Example 10-80] | 8.02 | – | 7.86 | < 50% | –
CC(C)(F)C(=O)N1CC2CNCC2C1 (stereo not drawn) [Example 10-41] | 7.57 | – | 7.92 | < 50% | –
O=C(C1CC=CCC1)N1CC2CNCC2C1 (stereo not drawn) [Example 10-49] | 6.88 | – | 6.63 | < 50% | –
O=C(C1CC12CCC2)N1CC2CNCC2C1 (stereo not drawn) [Example 10-26] | 8.40 | – | 8.20 | < 50% | –
O=C(C1CC1(F)F)N1CC2CNCC(C2)C1 (stereo not drawn) [Example 10-68] | 8.96 | 6.85 | 8.92 | – | –
O=C(CC1CC1)N1CC2CNCC2C1 (stereo not drawn) [Example 10-34] | 6.98 | – | 7.20 | < 50% | –
CC1(C)CC1C(=O)N1CC2CNCC2C1 (stereo not drawn) [Example 10-19] | 7.77 | – | 8.11 | < 50% | –

SMILES | pKi (human α4β2 nAChR subtype) | pKi (α7 nAChR subtype; [1]) | pKi (rat α4β2 nAChR subtype) | inhibition at 5 µM (α7 nAChR subtype) | pKi (α7 nAChR subtype; α7 Ki)
O=C(C1CC=CC1)N1CC2CNCC2C1 (stereo not drawn) [Example 10-7] | 7.14 | – | 7.55 | < 50% | –
CC(C)=CC(=O)N1CC2CNCC(C2)C1 [Example 10-60] | 7.86 | – | 7.59 | < 50% | –
O=C([C@H]1C[C@@H]1F)N1CC2CNCC2C1 (stereo partly drawn) [Example 10-36] | 7.76 | – | 7.46 | – | 4.60
O=C(C1CC=CCC1c1cccnc1)N1CC2CNCC2C1 (stereo not drawn) [Example 10-48] | 6.46 | – | 6.00 | < 50% | –
O=C([C@@H]1C[C@@H]1F)N1CC2CNCC2C1 (stereo partly drawn) [Example 10-39] | 8.42 | – | 8.18 | < 50% | –
CC(=O)N1CC2CNCC2C1 (stereo not drawn) [Example 10-1] | 7.41 | – | 7.69 | < 50% | –
O=C(N1CC2CNCC(C2)C1)C1(O)CC1 [Example 10-72] | 6.65 | – | 7.12 | < 50% | –
O=C([C@H]1C[C@@H]1F)N1CC2CNCC(C2)C1 [Example 10-87] | 8.28 | – | 7.94 | – | 6.23
O=C(CS(=O)(=O)c1ccccc1)N1CC2CNCC(C2)C1 [Example 10-84] | 6.22 | – | 6.02 | < 50% | –
N#CC1(C(=O)N2CC3CNCC3C2)CC1 (stereo not drawn) [Example 10-24] | 6.56 | – | 6.24 | < 50% | –
NC(=O)CC(=O)N1CC2CNCC2C1 (stereo not drawn) [Example 10-12] | 6.13 | – | 5.86 | < 50% | –
O=C(C1CC2CCC1C2)N1CC2CNCC(C2)C1 (stereo not drawn) [Example 10-93] | 7.45 | – | 7.30 | < 50% | –
O=C(CO)N1CC2CNCC2C1 (stereo not drawn) [Example 10-27] | 6.69 | – | 6.58 | < 50% | –
O=C(C(F)F)N1CC2CNCC(C2)C1 [Example 10-59] | 7.61 | 6.53 | 8.77 | – | –
O=C(C1CC2CCC1C2)N1CC2CNCC2C1 (stereo not drawn) [Example 10-42] | 7.19 | – | 6.86 | < 50% | –
CC(C)(F)C(=O)N1CC2CNCC(C2)C1 [Example 10-91] | 6.86 | – | 6.47 | < 50% | –
O=C(C1CC=CCC1c1cccnc1)N1CC2CNCC(C2)C1 (stereo not drawn) [Example 10-101] | 7.16 | – | 6.22 | < 50% | –
O=C(C1CC1)N1CC2CNCC(C2)C1 [Example 10-56] | 9.40 | 7.02 | 8.55 | – | –
CC(F)(F)C(=O)N1CC2CNCC(C2)C1 [Example 10-90] | 8.04 | – | 7.84 | < 50% | –
